Measured values from patent publication US6537553B1, “Leukosialin: Ig fusion proteins” (La Jolla Cancer Research Foundation, priority 1993, dated 2003).

Columns and labels:
[1] = system: activated mouse tEnd.1 cells (E-selectin mediated adhesion); experiment: Inhibition of adhesion of SM colonic carcinoma cells to IL-1β-activated mouse tEnd.1 endothelial cell monolayers; type: cell-based; conditions: for inhibition of adhesion of SM cells to activated mouse tEnd.1 cells: IL-1β-activated tEnd.1 monolayers, result in words (FIG. 4, 5A, 5B)
Source text: The mouse endothelioma cell lines, eEnd.2, sEnd.1, tEnd.1, and bEnd.4 were kindly provided by Dr. R. Lindsay Williams at the Ludwig Institute for Cancer Research, […], Austria. These cell lines, originally derived from a subcutaneous (sEnd.1), thymic (tEnd.1), embryonal (eEnd.2), and brain (bEnd.4) hemangliomas produced in transgenic mice expressing polyoma middle T antigen (Williams et al., Cell 52:121-131 (1988)). The cells were maintained in Dulbecco's modified Eagle's medium containing 10% fetal calf serum. Mouse endothelioma cell lines were cultured in 96-well tissue culture plates and activated with 10 units/ml IL-1β (Sigma) and then washed with Dulbecco's modified Eagle's medium containing 5% fetal calf serum before the colonic carcinoma cells were added. As the control, non-activated mouse endothelial cells were prepared identically and used in parallel for the adhesion assays. The adhesion and inhibition of the adhesion by soluble lamp-1 and soluble leukosialin were carried out exactly as described previously (Sawada et al., supra).
Inhibition by sialyl Le^x-positive glycolipid, NeuNAcα2→3Galβ1→4-(Fucα1→3)GlcNAcβ1→3Galβ1→4Glc→Cer was tested after the glycolipid was incorporated into liposomes (Phillips et al., Science 250:1130-1132 (1990)). Paragloboside, NeuNAcα2→3Galβ1→4GlcNAcβ1→3Galβ1→4Glc→Cer was used as a control glycolipid. Sialyl Le^x glycolipid (Kameyama et al., Carbohydr. Res. 209:C1-C4 (1991)) and paragloboside were kindly provided by Drs. Akira Hasegana, Gifu University, Japan, and Michiko Fukuda at this institute, respectively. In order to determine if sialyl Le^x structure on the human colonic cells are recognized by mouse endothelial cells, the adhesion was assayed after the colonic cells were preincubated with anti-sialyl Le^x antibody (CSLEX, IgM) or mouse anti-Le^x monoclonal antibody (anti-PMN-6, IgM). The anti-PMN-6 antibody (Ball and Fanger, Blood 61:456-463 (1983)) was kindly provided by Dr. Ball of the Dartmouth Medical School.
First, the binding of the cell line with the highest adhesion efficiency was tested in the presence of a sialyl Le^x containing glycolipid. SM cells were subjected to adhesion to activated mouse tEnd.1 cells as described in Example IV (and FIG. 3) (open bar), or as in FIG. 3 after pretreatment of the activated monolayers with liposomes containing sialyl Le^x glycolipid (hatched bars), or after pretreatment with liposomes containing the control glycolipid paragloboside (cross-hatched bar). The amount of glycolipid is shown in μg/ml at the x axis. The adhesion to non-activated mouse endothelial cells is shown by the closed bar. Data correspond to the fraction of applied cells still adherent to tEnd.1 cells after washing and are mean and standard deviation from four replicate assays.
The adhesion of SM cells to activated mouse tEnd.1 cells was tested for inhibition by soluble lamp-1 (FIG. 5A) or soluble leukosialin (FIG. 5B). The inhibition by soluble lamp-1 or soluble leukosialin derived from sialyl Le^x positive CHO cells is shown by hatched bars.
Inhibition by control soluble lamp-1 or control soluble leukosialin, which were derived from sialyl Le^x negative CHO cells, is shown by cross-hatched bars. The open bar represents the control without the inhibitors while the closed bar represents the adhesion to unstimulated mouse tEnd.1 monolayers. The experiments shown in FIGS. 5A and 5B were carried out at the same time.

[2] = target: mouse E-selectin on IL-1β-activated mouse tEnd.1 endothelioma cells (mouse) (UniProt Q00690); experiment: cell-based or functional assay
UniProt Q00690, sequence (Q00690 22-612): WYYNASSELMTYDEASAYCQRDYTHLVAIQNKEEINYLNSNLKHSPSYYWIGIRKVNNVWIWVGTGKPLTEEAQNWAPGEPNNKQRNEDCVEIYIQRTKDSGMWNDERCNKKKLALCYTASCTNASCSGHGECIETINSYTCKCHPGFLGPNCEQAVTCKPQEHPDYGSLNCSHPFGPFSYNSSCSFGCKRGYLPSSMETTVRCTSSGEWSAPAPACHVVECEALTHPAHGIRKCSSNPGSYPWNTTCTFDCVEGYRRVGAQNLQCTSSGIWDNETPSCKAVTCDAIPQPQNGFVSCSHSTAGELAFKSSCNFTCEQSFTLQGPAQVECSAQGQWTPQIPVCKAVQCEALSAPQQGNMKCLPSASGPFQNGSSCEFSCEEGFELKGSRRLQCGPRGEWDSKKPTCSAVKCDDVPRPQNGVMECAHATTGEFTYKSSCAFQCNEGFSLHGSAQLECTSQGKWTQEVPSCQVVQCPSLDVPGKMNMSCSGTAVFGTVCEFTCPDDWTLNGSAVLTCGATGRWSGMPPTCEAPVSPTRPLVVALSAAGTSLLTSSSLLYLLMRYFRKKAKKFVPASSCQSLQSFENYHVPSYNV

HUVEC = conditions: as described in Sawada et al. (1993); cited from earlier work

In the case of “NeuNAcα2→3Galβ1→4-(Fucα1→3)GlcNAcβ1→3Galβ1→4Glc→Cer [sialyl Le^x glycolipid, reference compound]”, the “inhibition of adhesion of SM cells to activated mouse tEnd.1 cells” value (“inhibition of adhesion of SM cells” below) ([1]; SM cells) is reported as “inhibited by liposomes containing sialyl Le^x glycolipid in a dose-dependent manner” and the “inhibition of adhesion to mouse cells compared with human endothelial cells” value ([1]; same carcinoma cells, same conditions, mouse vs human endothelial cells) is reported as “not as effective as the inhibition of the same carcinoma cells to human endothelial cells”.

In the case of “NeuNAcα2→3Galβ1→4GlcNAcβ1→3Galβ1→4Glc→Cer [sialyl paragloboside, reference compound]”, the “inhibition of adhesion of SM cells” value ([1]; SM cells) is reported as “did not inhibit the adhesion even at high concentrations”.

For “sialyl-Le^x-negative leukosialin: soluble leukosialin IgG chimeric protein lacking the sialyl-Le^x determinant, from control CHO cells without Fuc-TIII vector [reference compound]”, the “inhibition of adhesion of SM cells” value ([1]; SM cells) was “inhibited the binding minimally” and the “inhibition of adhesion of SM cells” value ([1]; SM cells, listed as soluble sialyl Le^x negative leukosialin) was “inhibited binding only minimally”.

For “sialyl-Le^x-positive leukosialin: soluble leukosialin fused to human IgG1 hinge plus constant region, from CHO cells expressing core 2 GlcNAc-transferase and Fuc-TIII; carries sialyl Le^x”, the “inhibition of adhesion of SM cells” value ([1]; SM cells) was “inhibited the adhesion of SM cells to mouse tEnd.1 cells in a concentration-dependent manner”, the “inhibition of adhesion of SM cells” value ([1]; SM cells, listed as sialyl Le^x positive leukosialin) was “inhibited the adhesion of SM cells to mouse tEnd.1 cells in a concentration dependent manner” and the “binding of SM cells to tEnd.1 cells, relative to control levels” value ([1]; SM cells, activated tEnd.1, concentration not stated in text (FIG. 5B)) was 30 % of control levels.

“soluble chimeric leukosialin-IgG protein, sialyl Le^x positive (from CHO-leu.C2GnT cells transfected with pSRα.s-leu.IgG and pcDNAI-Fuc.TIII) (from UniProt P16150 20-252; P01857 99-330) (Fc fusion)” gave an adhesion of SM cells to mouse tEnd.1 cells, percent of control (% of control levels) [2] of 30.

B1: soluble lamp-1 containing the sialyl Le^x: soluble form of lysosomal membrane glycoprotein-1 from CHO cells co-transfected with Fuc-TIII vector; carries sialyl Le^x (protein)
chain: AMFMVKNGNGTACIMANFSAAFSVNYDTKSGPKNMTFDLPSDATVVLNRSSCGKENTSDPSLVIAFGRGHTLTLNFTRNATRYSVQLMSFVYNLSDTHLFPNASSKEIKTVESITDIRADIDKKYRCVSGTQVHMNNVTVTLHDATIQAYLSNSSFSRGETRCEQDRPSPTTAPPAPPSPSPSPVPKSPSVDKYNVSGTNGTCLLASMGLQLNLTYERKDNTTVTRLLNINPNKTSASGSCGAHLVTLELHSEGTTVLLFQFGMNASSSRFFLQGIQLNTILPDARDPAFKAANGSLRALQATVGNSYKCNAEEHVRVTKAFSVNIFKVWVQAFKVEGGQFGSVEECLLDENSM
In the case of B1, the “inhibition of adhesion of SM cells” value ([1]; SM cells) is given as “able to inhibit the adhesion of SM cells to activated mouse tEnd.1 cells in a dose-dependent manner” and the “inhibition of binding of SP-pSRαlamp-1^H cells to HUVEC” value (HUVEC) is given as “inhibited the binding of the SP-pSRαlamp-1^H to HUVEC”.
